Results as given in US20160129003A1, “Pharmaceutical Combinations” (Novartis AG, priority 2013, published 2016).
Like-named read-outs stand apart in the source and are kept apart here.

Columns and labels:
[1] = system: primary human lung cancer LUF1656 xenograft; assay type: in vivo; conditions: PO, QD × 21 Days; for T/C (%): Day 21; for Tumor Size (mm^3) at Day 21 of Treatment: Mean ± SEM
Experimental: (§1) The in-vivo antitumor activity of the phosphatidylinositol-3-kinase inhibitor compound COMPOUND B in combination with either the anaplastic lymphoma kinase inhibitor COMPOUND D or crizotinib is evaluated in the treatment of subcutaneous primary human lung cancer LUF1656 xenograft models in nu/nu mice.
(§2) Experiments are performed with female Mus Musculus nu/nu mice (Vital River Laboratories, China) approximately 7-8 weeks of age and 19-24 g body weight at treatment start. All animals are housed in laminar flow rooms at constant temperature (approximately 20-26° C.) and humidity (approximately 40-70%) with 4 or 5 animals in each cage. All animals have free access to irradiation sterilized dry granule food and sterile drinking water. Animals are divided into groups of 10 animals per group.
COMPOUND B in form of its monohydrochloride salt (Novartis) is obtained as a powder and stored at −20° C. 323.3 mg of COMPOUND B monohydrochoride (equivalent to 294 mg of free base) is formulated in 21 ml of 1% Tween 80 and 21 ml 1% methylcellulose (M-0512). COMPOUND B is first sonicated in the 1% Tween 80 and then mixed with the 1% methylcellulose and then stirred for 1 hour and sonicated for 5 minutes to formulate a solution having a COMPOUND B concentration of 7 mg/ml. For this experiment, the COMPOUND B monohydrochloride salt is referred to as “COMPOUND B”.
(§3) COMPOUND D in the form of its salt (Novartis) is obtained as a powder and stored at −20° C. 388 mg of COMPOUND D salt (equivalents to 330 mg of free base) is suspended in 33 ml of 0.5% methylcellulose (M-0512) and 0.5% Tween, is sonicated and then is vortexed to formulate a solution having a COMPOUND D concentration of 10 mg/ml. Additionally, 11 ml of this 10 mg/ml concentration solution is diluted with 11 ml 0.5% methylcellulose and 0.5% Tween 80 and vortexted to form a second solution having a COMPOUND D concentration of 5 mg/ml. For this experiment, the COMPOUND D salt is referred to as “COMPOUND D”.
Crizotinib is obtained as a powder and stored at −20° C. 220 mg of crizotinib is suspended in 22 ml 0.5% methylcellulose (MC) and sonicated to form a solution having a crizotinib concentration of 10 mg/ml. This solution can be stored at 4° C. for 1 week and protected from light.
Tumor fragments from stock mice inoculated with LUF1656 primary human lung cancer cells (Crown Bio, China) are harvested and used for inoculation into the nu/nu mice. Each mouse is inoculated subcutaneously at the right flank with one tumor fragment (2-3 mm in diameter) for tumor development. The treatments are started when mean tumor size reach approximately 135 mm^3. Animals are routinely monitored and body weight measured twice weekly. Death and observed clinical signs are recorded on the basis of the number of animals within each subset. Animals observed to be in a continuing deteriorating condition or for which the tumor size of individual animal exceeds 1/10 of the body weight are euthanized prior to death or before comatose.
Tumor size is measured twice weekly in two dimensions using a caliper and the volume is expressed in mm^3 using the formula: V=0.5 a×b^2, wherein a and b are the long and short diameters of the tumor respectively. The tumor size is then used for calculation of both T-C and T/C values. T-C is calculated with T as the time (days) required for the mean tumor size of the treatment group to reach a predetermined size (e.g., 400 mm^3) and C is the time (in days) for the mean tumor size of the control group to reach the same size. T/C value (in percent is an indication of the anti-tumor effectiveness; T and C are the mean volume of the treated and control groups, respectively, on a given day.
Summary statistics are provided for the tumor volume of each group at each time point.

[2] = system: primary human lung cancer LU1656 xenograft; test: In-vivo antitumor activity, subcutaneous LU1656 xenograft, first and second phase (Example 3); conditions: for T-C (days) at 500 mm^3 / T/C (%) / Tumor Size (mm^3) at Day 61 Post Tumor Implantation / Tumor Size (mm^3) at Day 50 Post Tumor Implantation: p.o.; for Tumor Size (mm^3) at Day 61 Post Tumor Implantation / Tumor Size (mm^3) at Day 50 Post Tumor Implantation: Mean ± SEM
Experimental: as §1, with “activity […]” for “activity”, “B in combination with either the anaplastic lymphoma kinase inhibitor COMPOUND D or crizotinib and (b) of the phosphatidylinositol-3-kinase inhibitor compound COMPOUND C” for “B”, “LU1656” for “LUF1656”
as §2, with “water.” for “water. Animals are divided into groups of 10 animals per group.”
Animals are divided into 9 groups.
COMPOUND B in form of its monohydrochloride salt (Novartis) is obtained as a powder and stored at −20° C. 99.1 mg of COMPOUND B monohydrochoride (equivalent to 91 mg of free base) is formulated in 6.5 ml of 1% Tween 80 and 6.5 ml 1% methylcellulose (M-0512). COMPOUND B is first sonicated in the 1% Tween 80 and then mixed with the 1% methylcellulose and then stirred for 1 hour and sonicated for 5 minutes to formulate a solution having a COMPOUND B concentration of 7 mg/ml. For this experiment, the COMPOUND B monohydrochloride salt is referred to as “COMPOUND B”.
COMPOUND C is obtained as a powder and stored at 4° C. A vehicle is formulated by dissolving 2 g of CMC sodium salt powder low density in 198 ml of sterile water, mixing using a magnetic beater and heating (about 50° C.), adding 1 ml Tween 80, adjusting the pH to 7.6 using NaOh/HCl, and completing the volume to 200 ml. 84 mg of COMPOUND C is suspended in 3.5 ml of this vehicle and stirred/vortexed until homogenous; another 3.5 ml of this vehicle is added and homogenized; and another 7 ml of this vehicle is added and homogenized. To reduce particle size, this solution is sonicated for 1 hour using a sonication probe while cooling in an ice bath. The solution is having a COMPOUND C concentration of 6 mg/ml.
as §3
COMPOUND C is obtained as a powder and stored at 4° C. A vehicle is formulated by dissolving 2 g of CMC sodium salt powder low density in 198 ml of sterile water, mixing using a magnetic beater and heating (about 50° C.), adding 1 ml Tween 80, adjusting the pH to 7.6 using NaOh/HCl, and completing the volume to 200 ml.

[3] = second phase, Group 9: Crizotinib 50 mg/kg, QD × 40
[4] = first phase, Group 4: COMPOUND C 30 mg/kg, QD × 35
[5] = first phase, Group 3: COMPOUND D 50 mg/kg, QD × 40
[6] = second phase, Group 8: COMPOUND D 25 mg/kg, QD × 40

Nc1cc(C(F)(F)F)c(-c2cc(N3CCOCC3)nc(N3CCOCC3)n2)cn1 [COMPOUND B, 5-(2,6-di-morpholin-4-yl-pyrimidin-4-yl)-4-trifluoromethyl-pyridin-2-ylamine]
T/C (%) ([1]; Group 3: COMPOUND B 35 mg/kg): 30.1% | Tumor Size (mm^3) at Day 21 of Treatment ([1]; Group 3: COMPOUND B 35 mg/kg): 365.4 mm^3

C[C@@H](Oc1cc(-c2cnn(C3CCNCC3)c2)cnc1N)c1c(Cl)ccc(F)c1Cl [Crizotinib, reference compound]
T-C (days) at 400 mm^3 ([1]; Group 6: Crizotinib 50 mg/kg): 7 days | T/C (%) ([1]; Group 6: Crizotinib 50 mg/kg): 37.1% | Tumor Size (mm^3) at Day 21 of Treatment ([1]; Group 6: Crizotinib 50 mg/kg, from 9 animals' data (one outlier removed)): 450.8 ± mm^3 | T-C (days) at 500 mm^3 [2, 3]: 14 days | T/C (%) ([2]; second phase, Group 9: Crizotinib 50 mg/kg, QD × 40, Day 61): 24.7% | Tumor Size (mm^3) at Day 61 Post Tumor Implantation [2, 3]: 520.4 mm^3 | antitumor activity compared with vehicle control ([2]; second phase, Crizotinib 50 mg/kg, PO, QD×40, Day 47 to Day 61 after tumor implantation, p<0.01 or p<0.001 at different days): significant antitumor activity

Cc1nc(NC(=O)N2CCC[C@H]2C(N)=O)sc1-c1ccnc(C(C)(C)C(F)(F)F)c1 [COMPOUND C, (S)-Pyrrolidine-1,2-dicarboxylic acid 2-amide 1-({4-methyl-5-[2-(2,2,2-trifluoro-1,1-dimethyl-ethyl)-pyridin-4-yl]-thiazol-2-yl}-amide)]
antitumor activity against the LU1656 xenograft model (summary) ([2]; COMPOUND C at 30 mg/kg as a single agent): significant antitumor activity | T-C (days) at 500 mm^3 [2, 4]: 11 days | T/C (%) ([2]; first phase, Group 4: COMPOUND C 30 mg/kg, QD × 35, Day 50): 36.0% | Tumor Size (mm^3) at Day 50 Post Tumor Implantation [2, 4]: 752.5 mm^3

Cc1cc(Nc2ncc(Cl)c(Nc3ccccc3S(=O)(=O)C(C)C)n2)c(OC(C)C)cc1C1CCNCC1 [COMPOUND D, 5-Chloro-N2-(2-isopropoxy-5-methyl-4-piperidin-4-yl-phenyl)-N4-[2-(propane-2-sulfonyl)-phenyl]-pyrimidine-2,4-diamine]
T/C (%) ([1]; Group 7: COMPOUND D 25 mg/kg): 16.1% | Tumor Size (mm^3) at Day 21 of Treatment ([1]; Group 7: COMPOUND D 25 mg/kg): 194.9 mm^3 | T/C (%) ([1]; Group 8: COMPOUND D 50 mg/kg): 17.6% | Tumor Size (mm^3) at Day 21 of Treatment ([1]; Group 8: COMPOUND D 50 mg/kg): 213.6 mm^3 | antitumor activity against the LU1656 xenograft model (summary) ([2]; COMPOUND D at 25 mg/kg as a single agent): significant antitumor activity | antitumor activity against the LU1656 xenograft model (summary) ([2]; COMPOUND D at 50 mg/kg as a single agent): significant antitumor activity | T-C (days) at 500 mm^3 [2, 5]: 40 days | T/C (%) ([2]; first phase, Group 3: COMPOUND D 50 mg/kg, QD × 40, Day 50): 10.4% | Tumor Size (mm^3) at Day 50 Post Tumor Implantation [2, 5]: 218.2 mm^3 | T-C (days) at 500 mm^3 [2, 6]: 34 days | T/C (%) ([2]; second phase, Group 8: COMPOUND D 25 mg/kg, QD × 40, Day 61): 14.6% | Tumor Size (mm^3) at Day 61 Post Tumor Implantation [2, 6]: 307.4 mm^3 | antitumor activity compared to Crizotinib (50 mg/kg) monotherapy ([2]; second phase, COMPOUND D 25 mg/kg monotherapy, Day 64 to Day 82, p<0.05 or p<0.01 at different days): significantly improved
